Test results from patent US20250296960A1, “PEPTIDE COMPOSITIONS AND METHODS OF USE THEREOF” (priority 2022, published 2025).
Numbered stars: 1 amine (or outer) side, 2 acyl side, 3 side chain; on linkers, the order of the positions; unused ones are H or OH. Square brackets hold non-standard residues; d marks the D form. Side chains are listed from the residue outwards. Ends that are not written are not given here. * marks the point of attachment. C18 = C18 fatty acid (C16-C22 fatty acids conjugated via γGlu/8-amino-3,6-dioxaoctanoic acid spacers); C20 diacid = O=C(O)CCCCCCCCCCCCCCCCCCC(=O)*; γGlu = O=C(O)[C@H](CCC(=O)[*:2])N[*:1]; αMeL = CC(C)C[C@](C)(N)C(=O)O; AEEA = NCCOCCOCC(=O)O; Aib = CC(C)(N)C(=O)O

Key:
[1] = Body weight loss in normal C57BL/6 mice, subcutaneous dosing; format: in vivo; conditions: for Weight loss (%): normal mice
Protocol: To confirm the therapeutic effect of the peptide in vivo, polypeptides were administered to mice to measure changes in body weight. […] The peptides were delivered at 0.02% polysorbate 80 (PS80) in PBS and dosing volume was 10 mL/kg. Body weight was monitored 6 h, QD.
To confirm the therapeutic effect of the peptide in obesity, diabetes, or NASH, polypeptides were administered to mice to measure changes in food intake, blood glucose and body weight. […] In addition, a NASH animal model was prepared by feeding a high fat, high fructose, high cholesterol diet to normal C57BL/6 mice (approximately 6 weeks old) for approximately 21 weeks, and increasing the body weights of the mice to approximately 50 g on average. Thereafter, polypeptides were administered by subcutaneous injection at dose of 20 nmol/kg once every other day for 2 weeks. Body weight and food intake were measured once every other day given points of time. After 2 weeks of treatment period, mice were sacrificed, then liver weight, hepatic triglyceride, and NASH related biomarkers were measured.
DD01 administered at 40 nmol/kg, s.c. Q2D as positive control was delivered at 0.02% PS80 in PBS and dosing volume was 10 mL/kg. Body weight was monitored QD for 4 days.
The peptides were delivered at 0.02% PS80 in PBS and dosing volume was 10 mL/kg. Food intake, blood glucose, and body weight changes were monitored QD.

human GLP-1R = target: T1, human GLP-1R (Homo sapiens, UniProt P43220); assay: cAMP assay (HitHunter cAMP) in GLP-1R-expressing CHO-K1 cells (GLP-1R+ cells); format: cell-based
T1 construct: host or cells: CHO-K1
Protocol: (§1) The cells were seeded in a 96-well plate at 7×10^3 cells/well using cell plate reagent and incubated the cells overnight at 37° C. and 5% CO2. To perform the cAMP detection assay, cell plating reagent were replaced with the cAMP Assay buffer. Each of the wells was then treated with the diluted peptide and incubated for 30 minutes under conditions of a temperature of 37° C. in a CO2 incubator.
(§2) After the incubation, cAMP Antibody reagent and Working cAMP detection solution to all wells. Incubate the plate for 1 hour at Room temperature in the dark. Then, cAMP Solution A was added and incubated for 3 hours at room temperature in the dark. Subsequently, the luminescence was measured using the microplate reader device.

human GCGR = target: T2, human GCGR (Homo sapiens, UniProt P47871); assay: cAMP assay (HitHunter cAMP) in GCGR-expressing CHO-K1 cells (GCGR+ cells); format: cell-based
T2 construct: host or cells: CHO-K1
Protocol: as §1, §2

human GIPR = target: T3, human GIPR (Homo sapiens, UniProt P48546); assay: cAMP assay (HitHunter cAMP) in GIPR-expressing CHO-K1 cells (GIPR+ cells); format: cell-based
T3 construct: host or cells: CHO-K1
T3 sequence (P48546 22-466): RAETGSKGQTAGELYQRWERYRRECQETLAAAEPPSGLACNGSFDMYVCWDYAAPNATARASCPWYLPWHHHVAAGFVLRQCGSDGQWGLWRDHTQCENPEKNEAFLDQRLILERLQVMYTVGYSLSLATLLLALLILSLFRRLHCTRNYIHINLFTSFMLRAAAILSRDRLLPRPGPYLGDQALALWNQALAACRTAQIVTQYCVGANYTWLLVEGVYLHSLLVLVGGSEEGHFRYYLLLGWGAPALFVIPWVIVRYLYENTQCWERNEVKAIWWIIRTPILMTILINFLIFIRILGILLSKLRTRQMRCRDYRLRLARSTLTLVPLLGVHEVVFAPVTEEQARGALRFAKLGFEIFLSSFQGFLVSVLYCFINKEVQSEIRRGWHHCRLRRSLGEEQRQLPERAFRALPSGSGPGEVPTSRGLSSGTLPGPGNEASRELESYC
Protocol: as §1, §2

[2] = 20 nmol/kg QD, after 48 or 72 hours
[3] = 20 nmol/kg QD, Weight loss at 48 hr
[4] = Table 13, EC50 of STD peptide over EC50 of peptide
[5] = Table 14, normalised to activity at GLP-1R

T2 sequence (P47871 26-477): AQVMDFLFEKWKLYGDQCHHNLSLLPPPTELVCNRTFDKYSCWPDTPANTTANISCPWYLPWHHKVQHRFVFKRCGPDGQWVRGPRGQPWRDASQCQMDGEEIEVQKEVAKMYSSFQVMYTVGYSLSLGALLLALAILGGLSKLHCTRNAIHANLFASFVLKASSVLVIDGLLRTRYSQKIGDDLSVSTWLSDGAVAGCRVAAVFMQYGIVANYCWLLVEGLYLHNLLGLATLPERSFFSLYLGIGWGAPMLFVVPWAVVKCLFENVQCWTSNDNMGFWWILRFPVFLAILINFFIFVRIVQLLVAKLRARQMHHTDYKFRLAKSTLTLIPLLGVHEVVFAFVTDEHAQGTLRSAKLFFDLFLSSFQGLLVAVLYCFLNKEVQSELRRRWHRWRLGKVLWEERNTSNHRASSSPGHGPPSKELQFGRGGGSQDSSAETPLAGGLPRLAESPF
T1 sequence (P43220 24-463): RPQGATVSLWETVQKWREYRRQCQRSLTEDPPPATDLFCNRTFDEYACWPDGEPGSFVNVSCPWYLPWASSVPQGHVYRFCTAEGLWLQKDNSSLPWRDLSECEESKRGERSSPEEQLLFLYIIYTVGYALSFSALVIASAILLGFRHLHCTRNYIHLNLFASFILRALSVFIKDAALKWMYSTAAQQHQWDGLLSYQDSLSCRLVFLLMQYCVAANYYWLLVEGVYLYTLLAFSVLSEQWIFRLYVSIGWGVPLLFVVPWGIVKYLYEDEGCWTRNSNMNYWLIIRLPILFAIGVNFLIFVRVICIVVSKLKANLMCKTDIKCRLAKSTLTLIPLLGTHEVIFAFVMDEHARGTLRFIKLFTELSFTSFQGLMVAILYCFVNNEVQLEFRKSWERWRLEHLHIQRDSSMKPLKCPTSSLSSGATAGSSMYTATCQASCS

With “12-1A: Peptide No. 12-1 lipidated via conjugation to C-terminal cysteine (type A) (Y[Aib]QGTFTSDWSKYLDQQMAQDFVDWLINGGPSSGAPPPSC([AEEA-AEEA-γGlu-C18])-NH2)” as the compound, how does the “Weight loss (%)” value [1, 2] read?
The value was 9.0 ± 2.2%.

Which “Weight loss (%)” value [1, 2] does the source give for “12-5A: Peptide No. 12-5 lipidated via conjugation to C-terminal cysteine (type A) (H[Aib]QGTFTSDWSKYLDQQMQQDFVDWLLNGGPSSGAPPPSC([AEEA-AEEA-γGlu-C18])-NH2)” here?
Its value is 5.4 ± 0.9%.

For “12-3A: Peptide No. 12-3 lipidated via conjugation to C-terminal cysteine (type A) (Y[Aib]QGTFTSDWSKYLDQQMQQDFVDWLLNGGPSSGAPPPSC([AEEA-AEEA-γGlu-C18])-NH2)”, which “Weight loss (%)” value [1, 2] is on record?
The value was 0.2 ± 1.8%.

Which “Weight loss (%)” value [1, 2] does the source give for “12-2A: Peptide No. 12-2 lipidated via conjugation to C-terminal cysteine (type A) (Y[Aib]QGTFTSDWSKYLDQQMQQDFVDWLINGGPSSGAPPPSC([AEEA-AEEA-γGlu-C18])-NH2)” here?
The value was 2.0 ± 0.9%.

For “HAibQGT FTSDY SK*LLD YMMQRDFVQWLLEGGPSSGAPPPS (H[Aib]QGTFTSDYSK([AEEA-AEEA-γGlu-C18])LLDYMMQRDFVQWLLEGGPSSGAPPPS-NH2) [5-5D, K* = lysine lipidated with 2OEG-γGlu-C18]”, which “Weight loss (%)” value [1, 3] is on record?
The value was 10.3 ± 1.3%.

Which “Activity relative to STD peptide (%), GLP-1” value (human GLP-1R; [4]) does the source give for `CC[C@H](C)[C@H](NC(=O)[C@H](CC(C)C)NC(=O)[C@H](Cc1c[nH]c2ccccc12)NC(=O)[C@H](CCC(N)=O)NC(=O)[C@@H](NC(=O)[C@H](Cc1ccccc1)NC(=O)[C@H](CC(=O)O)NC(=O)[C@H](CCCNC(=N)N)NC(=O)[C@H](C)NC(=O)[C@H](CCSC)NC(=O)[C@H](CCSC)NC(=O)[C@H](Cc1ccc(O)cc1)NC(=O)[C@H](CC(=O)O)NC(=O)[C@H](CC(C)C)NC(=O)[C@H](Cc1ccc(O)cc1)NC(=O)[C@H](CCCCNC(=O)CCCC[C@@H]1SC[C@@H]2NC(=O)N[C@@H]21)NC(=O)[C@H](CO)NC(=O)[C@H](Cc1ccc(O)cc1)NC(=O)[C@H](CC(=O)O)NC(=O)[C@H](CO)NC(=O)[C@@H](NC(=O)[C@H](Cc1ccccc1)NC(=O)[C@@H](NC(=O)CNC(=O)[C@H](CCC(N)=O)NC(=O)C(C)(C)NC(=O)[C@@H](N)Cc1c[nH]cn1)[C@@H](C)O)[C@@H](C)O)C(C)C)C(=O)N[C@@H](CCC(=O)O)C(=O)NCC(=O)NCC(=O)N1CCC[C@H]1C(=O)N[C@@H](CO)C(=O)N[C@@H](CO)C(=O)NCC(=O)N[C@@H](C)C(=O)N1CCC[C@H]1C(=O)N1CCC[C@H]1C(=O)N1CCC[C@H]1C(=O)N[C@@H](CO)C(=O)N[C@@H](CSC1CC(=O)N(CCNC(=O)COCCOCCNC(=O)COCCOCCNC(=O)CC[C@H](NC(=O)CCCCCCCCCCCCCCCCC(=O)O)C(=O)O)C1=O)C(N)=O` (stereo partly shown) [5B, HAibQGT FTSDY SB*YLD YMMARDFVQWLIEGGPSSGAPPPSC*] here?
Its value is 87%.

What about the “Activity relative to GLP-1 (%), GLP-1” value (human GLP-1R; [5]) of the same compound?
Its value is 100%.

And the “Activity relative to STD peptide (%), Glucagon” value (human GCGR; [4])?
The value was 5%.

What about the “Activity relative to GLP-1 (%), Glucagon” value (human GCGR; [5]) of the same compound?
The value was 6%.

And the “Activity relative to STD peptide (%), GIP” value (human GIPR; [4])?
The value was 2%.

What about the “Activity relative to GLP-1 (%), GIP” value (human GIPR; [5]) of the same compound?
Its value is 2%.

With “5-4A: Peptide No. 5-4 lipidated via conjugation to C-terminal cysteine (type A) (H[Aib]QGTFTSDYSKYLDYMMQRDFVQWLIEGGPSSGAPPPSC([AEEA-AEEA-γGlu-C18])-NH2)” as the compound, how does the “Weight loss (%)” value [1, 2] read?
The value was 8.3 ± 0.9%.

For “12-4A: Peptide No. 12-4 lipidated via conjugation to C-terminal cysteine (type A) (H[Aib]QGTFTSDWSKYLDQQMQQDFVDWLINGGPSSGAPPPSC([AEEA-AEEA-γGlu-C18])-NH2)”, which “Weight loss (%)” value [1, 2] is on record?
The value was 4.3 ± 0.9%.

For “YAibQGT FTSDY SKYLD YK*MAR DFVQW LIEGG PSSGA PPPS (Y[Aib]QGTFTSDYSKYLDYK([AEEA-AEEA-γGlu-C18])MARDFVQWLIEGGPSSGAPPPS-NH2) [5-1F, K* = lysine lipidated with 2OEG-γGlu-C18]”, which “Weight loss (%)” value [1, 3] is on record?
Its value is 21.9 ± 2.5%.

For “5-3A: Peptide No. 5-3 lipidated via conjugation to C-terminal cysteine (type A) (Y[Aib]QGTFTSDYSKLLDYMMQRDFVQWLLEGGPSSGAPPPSC([AEEA-AEEA-γGlu-C18])-NH2)”, which “body weight loss effect, in words” value ([1]; Example 5, 20 nmol/kg s.c. QD, 4 days) is on record?
The value was “least effect”.

What about the “Weight loss (%)” value [1, 2] of the same compound?
Its value is 5.5 ± 1.6%.

Which “Weight loss (%)” value [1, 2] does the source give for “12-7A: Peptide No. 12-7 lipidated via conjugation to C-terminal cysteine (type A) (H[Aib]EGTFTSDWSKYLDQQMAQDFVDWLINGGPSSGAPPPSC([AEEA-AEEA-γGlu-C18])-NH2)” here?
Its value is 9.5 ± 3.0%.

For “HAibQGT FTSDY SK*YLD YMMQRDFVQWLIEGGPSSGAPPPS (H[Aib]QGTFTSDYSK([AEEA-AEEA-γGlu-C18])YLDYMMQRDFVQWLIEGGPSSGAPPPS-NH2) [5-4D, K* = lysine lipidated with 2OEG-γGlu-C18]”, which “Weight loss (%)” value [1, 3] is on record?
Its value is 7.2 ± 0.9%.

Which “Weight loss (%)” value ([1]; 10 nmol/kg QD, after 48 or 72 hours) does the source give for “Y-Aib-QGTFTSDYSI-αMeL-LDKK((2-[2-(2-amino-ethoxy)-ethoxy]-acetyl)-(γGlu)-CO-(CH2)18-CO2H)AQ-Aib-AFIEYLLE-Aib-GPSS-Aib-APPPS-NH2 (Y[Aib]QGTFTSDYSI[αMeL]LDKK([AEEA-γGlu-C20 diacid])AQ[Aib]AFIEYLLE[Aib]GPSS[Aib]APPPS-NH2; N-terminus assumed; SMILES CC[C@H](C)[C@H](NC(=O)[C@H](Cc1ccccc1)NC(=O)[C@H](C)NC(=O)C(C)(C)NC(=O)[C@H](CCC(N)=O)NC(=O)[C@H](C)NC(=O)[C@H](CCCCNC(=O)COCCOCCNC(=O)CC[C@H](NC(=O)CCCCCCCCCCCCCCCCCCC(=O)O)C(=O)O)NC(=O)[C@H](CCCCN)NC(=O)[C@H](CC(=O)O)NC(=O)[C@H](CC(C)C)NC(=O)[C@](C)(CC(C)C)NC(=O)[C@@H](NC(=O)[C@H](CO)NC(=O)[C@H](Cc1ccc(O)cc1)NC(=O)[C@H](CC(=O)O)NC(=O)[C@H](CO)NC(=O)[C@@H](NC(=O)[C@H](Cc1ccccc1)NC(=O)[C@@H](NC(=O)CNC(=O)[C@H](CCC(N)=O)NC(=O)C(C)(C)NC(=O)[C@@H](N)Cc1ccc(O)cc1)[C@@H](C)O)[C@@H](C)O)[C@@H](C)CC)C(=O)N[C@@H](CCC(=O)O)C(=O)N[C@@H](Cc1ccc(O)cc1)C(=O)N[C@@H](CC(C)C)C(=O)N[C@@H](CC(C)C)C(=O)N[C@@H](CCC(=O)O)C(=O)NC(C)(C)C(=O)NCC(=O)N1CCC[C@H]1C(=O)N[C@@H](CO)C(=O)N[C@@H](CO)C(=O)NC(C)(C)C(=O)N[C@@H](C)C(=O)N1CCC[C@H]1C(=O)N1CCC[C@H]1C(=O)N1CCC[C@H]1C(=O)N[C@@H](CO)C(N)=O) [EL.EX.14, reference compound]” here?
The value was 11.0 ± 2.4%.
